Test results from ChEMBL document CHEMBL1143702, “Synthesis and biological evaluation of (+/-)-abyssinone II and its analogues as aromatase inhibitors for chemoprevention of breast cancer” (J Med Chem, 2007).

Molecular target: T1, Aromatase (Homo sapiens, UniProt P11511)
T1 sequence (P11511 whole entry): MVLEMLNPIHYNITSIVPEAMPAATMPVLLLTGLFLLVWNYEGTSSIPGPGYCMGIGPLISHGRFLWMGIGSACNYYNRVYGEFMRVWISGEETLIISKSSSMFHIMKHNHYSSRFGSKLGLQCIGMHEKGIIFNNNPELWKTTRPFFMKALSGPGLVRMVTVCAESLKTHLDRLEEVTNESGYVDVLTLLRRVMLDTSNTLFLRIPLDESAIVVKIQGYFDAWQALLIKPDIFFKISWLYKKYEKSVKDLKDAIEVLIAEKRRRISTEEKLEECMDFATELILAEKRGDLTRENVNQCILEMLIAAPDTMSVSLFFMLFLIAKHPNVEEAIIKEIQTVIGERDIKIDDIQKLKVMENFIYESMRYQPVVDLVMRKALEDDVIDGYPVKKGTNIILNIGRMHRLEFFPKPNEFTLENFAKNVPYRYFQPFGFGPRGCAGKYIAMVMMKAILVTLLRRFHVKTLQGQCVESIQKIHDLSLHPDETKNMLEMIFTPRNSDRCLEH
Description: Inhibition of human aromatase

COc1ccc(C(=O)/C=C/c2ccc(OCC=C(C)C)cc2)c(O)c1 was tested, and the IC50 was > 271 µM.
With COCOc1ccc(C(=O)/C=C/c2ccc(OCOC)c(CC=C(C)C)c2)c(O)c1 the IC50 was > 242 µM.
